Test results as given in US9585964B2, “Liver targeted conjugates” (President and Fellows of Harvard College, priority 2005, dated 2017).

System: hepatic injury induced by carbon tetrachloride (CCl4)
Assay: mouse model of hepatic injury induced by carbon tetrachloride (CCl4); serum ALT and AST
Type: in vivo
Conditions: ICR mice; for increase in serum ALT compared to the vehicle control / increase in serum AST compared to the vehicle control: CCl4
Method: An indomethacin-simvastatin conjugate (Ind-S) and lovastatin alone were evaluated for possible hepatoprotective activity in a mouse model of hepatic injury induced by carbon tetrachloride (CCl4). Ind-S at 0.5, 1 and 5 μmol/kg and lovastatin at 30 mg/kg were each administered intraperitoneally 0.5 hour before and at 4 and 8 hours after CCl4 challenge. The degree of hepatic injury was manifested by increases in alanine aminotransferase (ALT) and aspartate aminotransferase (AST) levels relative to the vehicle-treated animals. A decrease of 30% or more in serum ALT or AST is considered significant protective activity. The test substances were provided at the indicated concentrations. […] The test substances were administered intraperitoneally at 0.5 hour before and 4 and 8 hours after CCl4 administration to test mice. The dosing volume was 5 mL/kg. Male ICR derived mice weighing 24±2 g and provided by BioLasco Taiwan, a Charles River Laboratories Technology Licensee, were used in the study Space allocation for animals was 29×18×13 cm for 10 mice. The animals were housed in APEC^R cages. All animals were maintained in a hygienic environment under controlled temperature (22-24° C.) and humidity (60%-70%) with 12 hours light/dark cycles for at least one week prior to use with free access to standard lab chow (LabDiet Rodent Diet, PMI Nutrition International, USA) and tap water. Seven groups of five ICR derived male mice (weighing 24±2 g) were used. Each animal was challenged with a single dose of carbon tetrachloride (CCl4, 0.1 mL/kg in 50% olive oil, PO). The test substances were administered intraperitoneally at 30 minutes before and 4, 8 hours after carbon tetrachloride challenge and the animals were sacrificed 24 hours later. Serum alanine aminotransferase (ALT) and aspartate aminotransferase (AST) levels were measured by optimized UV method using a HITACHI automatic analyzer (model 7050). Silymarin (300 mg/kg, PO) as the positive control agent was administered orally to test animals at the same time.

COc1ccc2c(c1)c(CC(=O)OCCNC(=O)CCC(C)(C)C(=O)O[C@H]1C[C@@H](C)C=C3C=C[C@H](C)[C@H](CC[C@@H]4C[C@@H](O)CC(=O)O4)[C@H]31)c(C)n2C(=O)c1ccc(Cl)cc1 [Ind-S, 6(R)-[2-[8(S)-{4-(2-{2-[1-(4-Chloro-benzoyl)-5-methoxy-2-methyl-1H-indol-3-yl]-acetoxy}-ethylcarbamoyl)-2,2-dimethyl-butyryloxy}-2(S),6(R)-dimethyl-1,2,6,7,8,8,a(R)-hexahydronaphthyl-1(S)]ethyl]-4(R)-hydroxy-3,4,5,6-tetrahydro-2H-Pyran-2-one]
reduction in serum ALT level relative to the vehicle-treated group (5 μmol/kg IP, 0.5 h before and 4 and 8 h after CCl4, non-significant): 21% | reduction of AST activity relative to the vehicle-treated group (5 μmol/kg IP, 0.5 h before and 4 and 8 h after CCl4, serum at 24 h): 34%

CC[C@H](C)C(=O)O[C@H]1C[C@@H](C)C=C2C=C[C@H](C)[C@H](CC[C@@H]3C[C@@H](O)CC(=O)O3)[C@H]21 [Lovastatin]
increase in serum ALT compared to the vehicle control (30 mg/kg IP): 17% | increase in serum AST compared to the vehicle control (30 mg/kg IP): 38%

COc1ccc2c(c1)c(CC(=O)O)c(C)n2C(=O)c1ccc(Cl)cc1 [indomethacin]
increase in serum ALT compared to the vehicle control (5 μmol/kg IP): 39% | increase in serum AST compared to the vehicle control (5 μmol/kg IP): 73%
